The assay deals with T1, SHP2 (Homo sapiens, UniProt Q06124).
T1 sequence (Q06124 1-593): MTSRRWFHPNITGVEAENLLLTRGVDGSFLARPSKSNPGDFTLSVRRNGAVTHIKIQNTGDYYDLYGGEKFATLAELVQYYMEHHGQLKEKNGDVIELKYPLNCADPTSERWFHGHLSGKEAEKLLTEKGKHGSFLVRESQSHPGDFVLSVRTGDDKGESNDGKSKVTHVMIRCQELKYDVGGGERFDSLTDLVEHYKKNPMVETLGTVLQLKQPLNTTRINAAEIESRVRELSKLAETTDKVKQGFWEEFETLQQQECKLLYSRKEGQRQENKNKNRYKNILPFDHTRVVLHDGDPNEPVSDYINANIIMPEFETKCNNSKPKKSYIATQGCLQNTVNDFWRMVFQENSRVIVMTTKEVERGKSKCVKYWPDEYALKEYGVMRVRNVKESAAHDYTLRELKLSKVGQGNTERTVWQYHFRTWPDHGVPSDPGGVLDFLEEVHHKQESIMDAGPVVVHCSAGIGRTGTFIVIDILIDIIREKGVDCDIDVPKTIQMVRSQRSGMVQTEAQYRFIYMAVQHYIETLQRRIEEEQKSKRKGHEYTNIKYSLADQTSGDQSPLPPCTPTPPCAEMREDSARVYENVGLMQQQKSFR
Briefly: SHP2 allosteric inhibitor enzyme activity assay (DiFMUP fluorescence). Type of assay: biochemical. As to conditions: class symbols. Summed up: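 SHP2 activated by 0.5 μM IRS1_pY1172(dPEG8)pY1222 peptide, 0.2 ng enzyme per well, 1 h at room temperature with compound (1 μM top, 3-fold series), then DiFMUP substrate 1 h. Buffer: 60 mM HEPES, 75 mM NaCl, 75 mM KCl, 0.05% BRIJ-35, 1 mM EDTA, 5 mM DTT. Fluorescence ex 340/em 450 nm; IC50 by variable-slope fit.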
Compound `CC1(C)Cc2nc(C(F)(F)F)ccc2C(c2n[nH]c3nc(N4CCC5(CC4)Cc4ccccc4[C@H]5N)[nH]c(=O)c23)=C1F` [Example 189, (S)-6-(1-amino-1,3-dihydrospiro[indene-2,4′-piperidin]-1′-yl)-3-(6-fluoro-7,7-dimethyl-2-(trifluoromethyl)-7,8-dihydroquinolin-5-yl)-1,5-dihydro-4H-pyrazolo[3,4-d]pyrimidin-4-one] registered an IC50 of at most 20 nM.
As to `C[C@@H]1OCC2(CCN(C3=NC4=NCCN4C(N)=C3C3(c4ccccc4)CC3)CC2)[C@@H]1N` [Example 266, (3S,4S)-8-(5-amino-6-(1-phenylcyclopropyl)-2,3-dihydroimidazo[1,2-a]pyrimidin-7-yl)-3-methyl-2-oxa-8-azaspiro[4.5]decan-4-amine], the half-maximal inhibitory concentration (IC50) was above 60 nM.
The figure for `C[C@@H]1OCC2(CCN(c3nc4[nH]nc(C5(c6ncco6)CC5)c4c(=O)[nH]3)CC2)[C@@H]1N` [Example 279, 6-((3S,4S)-4-amino-3-methyl-2-oxa-8-azaspiro[4.5]decan-8-yl)-3-(1-(oxazol-2-yl)cyclopropyl)-1,5-dihydro-4H-pyrazolo[3,4-d]pyrimidin-4-one] is 20 to 60 nM.
As for `N[C@@H]1c2ccccc2CC12CCN(c1nc3[nH]nc(C4=C(F)CCc5ncccc54)c3c(=O)[nH]1)CC2` [Example 186, (S)-6-(1-amino-1,3-dihydrospiro[indene-2,4′-piperidin]-1′-yl)-3-(6-fluoro-7,8-dihydroquinolin-5-yl)-1,5-dihydro-4H-pyrazolo[3,4-d]pyrimidin-4-one], the half-inhibitory concentration (IC50) was at most 20 nM.
The figure for `N[C@@H]1c2ccccc2CC12CCN(c1nc3[nH]nc(C4(c5cccc(Cl)c5Cl)CC4)c3c(=O)[nH]1)CC2` [Example 49, (S)-6-(1-amino-1,3-dihydrospiro[indene-2,4′-piperidin]-1′-yl)-3-(1-(2,3-dichlorophenyl)cyclopropyl)-1,5-dihydro-4H-pyrazolo[3,4-d]pyrimidin-4-one] is at most 20 nM; for `N[C@@H]1c2ccccc2CC12CCN(c1nc3[nH]nc(C4(c5ccnc(-c6ccccc6)c5)CC4)c3c(=O)[nH]1)CC2` [Example 86, (S)-6-(1-amino-1,3-dihydrospiro[indene-2,4′-piperidin]-1′-yl)-3-(1-(2-phenylpyridin-4-yl)cyclopropyl)-1,5-dihydro-4H-pyrazolo[3,4-d]pyrimidin-4-one] it is at most 20 nM.
As for `C[C@@H]1OCC2(CCN(c3nc4[nH]nc(C5(c6ccc(N)cc6)CC5)c4c(=O)[nH]3)CC2)[C@@H]1N` [Example 299, 6-((3S,4S)-4-amino-3-methyl-2-oxa-8-azaspiro[4.5]decan-8-yl)-3-(1-(4-aminophenyl)cyclopropyl)-1,5-dihydro-4H-pyrazolo[3,4-d]pyrimidin-4-one], the figure is 20 to 60 nM.
The figure for `Cn1ncc2c1CC(C)(C)C=C2c1n[nH]c2nc(N3CCC4(CC3)Cc3ccccc3[C@H]4N)[nH]c(=O)c12` [Example 150, (S)-6-(1-amino-1,3-dihydrospiro[indene-2,4′-piperidin]-1′-yl)-3-(1,6,6-trimethyl-6,7-dihydro-1H-indazol-4-yl)-1,5-dihydro-4H-pyrazolo[3,4-d]pyrimidin-4-one] is at most 20 nM; for `N[C@@H]1c2ccccc2CC12CCN(c1nc3[nH]nc(C4(c5ccnc(-c6ccccn6)c5)CC4)c3c(=O)[nH]1)CC2` [Example 87, (S)-3-(1-([2,2′-bipyridin]-4-yl)cyclopropyl)-6-(1-amino-1,3-dihydrospiro[indene-2,4′-piperidin]-1′-yl)-1,5-dihydro-4H-pyrazolo[3,4-d]pyrimidin-4-one] it is at most 20 nM.
The compound `N[C@@H]1c2ccccc2CC12CCN(c1nc3[nH]nc(C4(c5ccccc5)CC4(Cl)Cl)c3c(=O)[nH]1)CC2` (stereo partly drawn) [Example 7, 6-((S)-1-amino-1,3-dihydrospiro[indene-2,4′-piperidin]-1′-yl)-3-(2,2-dichloro-1-phenylcyclopropyl)-1,5-dihydro-4H-pyrazolo[3,4-d]pyrimidin-4-one] displayed a 50% inhibitory concentration (IC50) above 60 nM.
`CN(C)c1nccc(C2(c3n[nH]c4nc(N5CCC6(CC5)Cc5ccccc5[C@H]6N)[nH]c(=O)c34)CC2)c1Cl` [Example 61, (S)-6-(1-amino-1,3-dihydrospiro[indene-2,4′-piperidin]-1′-yl)-3-(1-(3-chloro-2-(dimethylamino)pyridin-4-yl)cyclopropyl)-1,5-dihydro-4H-pyrazolo[3,4-d]pyrimidin-4-one] had an IC50 of at most 20 nM.
The figure for `Cc1nc(N2CCC3(CC2)CO[C@@H](C)[C@H]3N)c(CO)nc1C1(c2ccccc2)CC1` [Example 261, (3-((3S,4S)-4-amino-3-methyl-2-oxa-8-azaspiro[4.5]decan-8-yl)-5-methyl-6-(1-phenylcyclopropyl)pyrazin-2-yl)methanol] is above 60 nM; for `C[C@@H]1OCC2(CCN(c3nc4[nH]nc(C5(c6cccc(Cl)c6Cl)CC5)c4c(=O)[nH]3)CC2)[C@@H]1N` [Example 309, 6-((3S,4S)-4-amino-3-methyl-2-oxa-8-azaspiro[4.5]decan-8-yl)-3-(1-(2,3-dichlorophenyl)cyclopropyl)-1,5-dihydro-4H-pyrazolo[3,4-d]pyrimidin-4-one] it is 20 to 60 nM.
For `N[C@@H]1c2ccccc2CC12CCN(c1nc3[nH]nc(C4(c5nccs5)CC4)c3c(=O)[nH]1)CC2` [Example 84, (S)-6-(1-amino-1,3-dihydrospiro[indene-2,4′-piperidin]-1′-yl)-3-(1-(thiazol-2-yl)cyclopropyl)-1,5-dihydro-4H-pyrazolo[3,4-d]pyrimidin-4-one], the 50% inhibitory concentration (IC50) is at most 20 nM.
Turning to `N[C@@H]1c2ccccc2CC12CCN(c1nc3[nH]nc(C4=CS(=O)(=O)Cc5ccccc54)c3c(=O)[nH]1)CC2` [Example 182, (S)-6-(1-amino-1,3-dihydrospiro[indene-2,4′-piperidin]-1′-yl)-3-(2,2-dioxido-1H-isothiochromen-4-yl)-1,5-dihydro-4H-pyrazolo[3,4-d]pyrimidin-4-one], the half-inhibitory concentration (IC50) is at most 20 nM.
As for `Cn1cc2c(n1)CC(C)(C)C=C2c1n[nH]c2nc(N3CCC4(CC3)Cc3ccccc3[C@H]4N)[nH]c(=O)c12` [Example 153, (S)-6-(1-amino-1,3-dihydrospiro[indene-2,4′-piperidin]-1′-yl)-3-(2,6,6-trimethyl-6,7-dihydro-2H-indazol-4-yl)-1,5-dihydro-4H-pyrazolo[3,4-d]pyrimidin-4-one], the figure is at most 20 nM.
The figure for `C[C@@H]1OCC2(CCN(c3nc4[nH]nc(C5(c6cccc(-n7cccn7)c6)CC5)c4c(=O)[nH]3)CC2)[C@@H]1N` [Example 314, 3-(1-(3-(1H-pyrazol-1-yl)phenyl)cyclopropyl)-6-((3S,4S)-4-amino-3-methyl-2-oxa-8-azaspiro[4.5]decan-8-yl)-1,5-dihydro-4H-pyrazolo[3,4-d]pyrimidin-4-one] is above 60 nM.
The figure for `N[C@@H]1COCC12CCN(c1nc3[nH]nc(C4(c5nc6ccccc6[nH]5)CC4)c3c(=O)[nH]1)CC2` [Example 283, (S)-3-(1-(1H-benzo[d]imidazol-2-yl)cyclopropyl)-6-(4-amino-2-oxa-8-azaspiro[4.5]decan-8-yl)-1,5-dihydro-4H-pyrazolo[3,4-d]pyrimidin-4-one] is above 60 nM.

As usually defined, the IC50 is the midpoint of a concentration-inhibition curve.
